Key:
Assay in all cases: relative viability (nuclei count vs DMSO), 5 days (fraction); higher = more cells survive
Decitabine + Trametinib = compound: Nc1ncn([C@H]2C[C@H](O)[C@@H](CO)O2)c(=O)n1 [Decitabine] + CC(=O)Nc1cccc(-n2c(=O)n(C3CC3)c(=O)c3c(Nc4ccc(I)cc4F)n(C)c(=O)c(C)c32)c1 [Trametinib] (partner 0.02 µM)
How it was run: (§1)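 Lung cancer cell lines in 1536-well plates got either a single drug or a fixed anchor-drug dose together with five library-drug doses (not always all listed) in √10 steps, by pin tool, on the day after seeding. Nuclei were counted after 5 days, and relative viability is the treated-to-vehicle ratio of nuclei counts. Values are medians of duplicate plates.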

Decitabine + OSI-027 = compound: Nc1ncn([C@H]2C[C@H](O)[C@@H](CO)O2)c(=O)n1 [Decitabine] + COc1cccc2cc(-c3nc([C@H]4CC[C@H](C(=O)O)CC4)n4ncnc(N)c34)[nH]c12 [OSI-027] (partner 0.5 µM)
How it was run: as §1

[1] = compound: O=C(C[C@H]1NCCC[C@@H]1O)Cn1cnc2cc(Br)c(Cl)cc2c1=O (racemic) [Halofuginone] + N=C(N)NC(=N)NCCc1ccccc1 [Phenformin] (partner 250 µM)
How it was run: as §1

Halofuginone + Olaparib = compound: O=C(C[C@H]1NCCC[C@@H]1O)Cn1cnc2cc(Br)c(Cl)cc2c1=O (racemic) [Halofuginone] + O=C(c1cc(Cc2n[nH]c(=O)c3ccccc23)ccc1F)N1CCN(C(=O)C2CC2)CC1 [Olaparib] (partner 8 µM)
How it was run: as §1

Cell Line | relative viability (Decitabine + Trametinib; first compound 0.04 µM) | relative viability (Decitabine + Trametinib; first compound 0.1265 µM) | relative viability (Decitabine + Trametinib; first compound 0.4 µM) | relative viability (Decitabine + Trametinib; first compound 1.265 µM) | relative viability (Decitabine + Trametinib; first compound 4 µM) | relative viability (Decitabine + OSI-027; first compound 0.04 µM) | relative viability (Decitabine + OSI-027; first compound 0.1265 µM) | relative viability (Decitabine + OSI-027; first compound 0.4 µM) | relative viability (Decitabine + OSI-027; first compound 1.265 µM) | relative viability (Decitabine + OSI-027; first compound 4 µM) | relative viability ([1]; first compound 0.001 µM) | relative viability ([1]; first compound 0.003162 µM) | relative viability ([1]; first compound 0.01 µM) | relative viability ([1]; first compound 0.03162 µM) | relative viability ([1]; first compound 0.1 µM) | relative viability (Halofuginone + Olaparib; first compound 0.001 µM) | relative viability (Halofuginone + Olaparib; first compound 0.003162 µM) | relative viability (Halofuginone + Olaparib; first compound 0.01 µM) | relative viability (Halofuginone + Olaparib; first compound 0.03162 µM) | relative viability (Halofuginone + Olaparib; first compound 0.1 µM)
HCC-366 | 0.361 | 0.334 | 0.258 | 0.12 | 0.109 | 0.859 | 0.915 | 0.485 | 0.253 | 0.176 | 0.723 | 0.633 | 0.646 | 0.581 | 0.458 | 0.337 | 0.319 | 0.351 | 0.328 | 0.0775
HCC-827 | 0.222 | 0.378 | 0.322 | 0.257 | 0.344 | 0.129 | 0.37 | 0.311 | 0.202 | 0.27 | 0.407 | 0.426 | 0.373 | 0.434 | 0.38 | 0.673 | 0.588 | 0.667 | 0.631 | 0.599
HOP-62 | 0.358 | 0.338 | 0.262 | 0.202 | 0.187 | 0.613 | 0.601 | 0.272 | 0.23 | 0.167 | 0.663 | 0.707 | 0.676 | 0.634 | 0.603 | 0.493 | 0.473 | 0.415 | 0.296 | 0.129
IA-LM |  |  |  |  |  |  |  |  |  |  |  |  |  |  |  | 0.848 | 0.913 | 0.768 | 0.656 | 0.305
LC-2-ad | 0.778 | 0.837 | 0.763 | 0.651 | 0.573 | 0.738 | 0.705 | 0.663 | 0.457 | 0.479 | 0.694 | 0.581 | 0.536 | 0.677 | 0.466 | 0.675 | 0.697 | 0.692 | 0.678 | 0.669
LCLC-97TM1 | 0.219 | 0.213 | 0.183 | 0.144 | 0.155 | 0.244 | 0.295 | 0.188 | 0.229 | 0.11 | 0.4 | 0.408 | 0.351 | 0.417 | 0.332 | 0.445 | 0.314 | 0.392 | 0.387 | 0.233
LCLC-103H | 0.659 | 0.714 | 0.771 | 0.623 | 0.688 | 0.406 | 0.472 | 0.462 | 0.376 | 0.376 | 0.35 | 0.341 | 0.323 | 0.326 | 0.309 | 0.794 | 0.779 | 0.778 | 0.747 | 0.737
LK-2 | 0.692 | 0.674 | 0.605 | 0.435 | 0.371 | 0.188 | 0.2 | 0.191 | 0.252 | 0.212 | 0.627 | 0.598 | 0.404 | 0.372 | 0.221 | 0.806 | 0.623 | 0.673 | 0.833 | 0.607
LOU-NH91 | 0.661 | 0.831 | 0.78 | 0.707 | 0.757 | 0.497 | 0.738 | 0.621 | 0.629 | 0.672 | 0.75 | 0.686 | 0.65 | 0.786 | 0.628 | 0.958 | 0.93 | 0.853 | 0.925 | 0.81
LU99A | 0.51 | 0.569 | 0.632 | 0.397 | 0.396 | 0.307 | 0.291 | 0.319 | 0.255 | 0.293 | 0.945 | 1.08 | 0.841 | 0.764 | 0.735 | 0.268 | 0.257 | 0.25 | 0.248 | 0.286
LXF-289 | 0.647 | 0.519 | 0.38 | 0.312 | 0.314 | 0.646 | 0.617 | 0.361 | 0.31 | 0.23 | 0.533 | 0.519 | 0.498 | 0.508 | 0.507 | 1.02 | 1.03 | 1.06 | 1.07 | 0.815
NCI-H23 | 0.344 | 0.365 | 0.238 | 0.191 | 0.255 | 0.48 | 0.498 | 0.255 | 0.231 | 0.245 | 0.774 | 0.762 | 0.757 | 0.806 | 0.669 | 0.409 | 0.291 | 0.326 | 0.271 | 0.223
NCI-H322M | 0.508 | 0.453 | 0.6 | 0.457 | 0.486 | 0.507 | 0.496 | 0.432 | 0.473 | 0.441 | 0.783 | 0.728 | 0.721 | 0.566 | 0.478 | 0.821 | 0.535 | 0.781 | 0.624 | 0.5
NCI-H358 | 0.132 | 0.124 | 0.137 | 0.121 | 0.126 | 0.372 | 0.254 | 0.2 | 0.113 | 0.12 | 0.303 | 0.312 | 0.261 | 0.189 | 0.079 | 0.653 | 0.556 | 0.459 | 0.26 | 0.124
NCI-H1299 |  |  |  |  |  |  |  |  |  |  |  |  |  |  |  | 1 | 1.05 | 0.929 | 0.851 | 0.418
NCI-H1563 |  |  |  |  |  | 0.791 | 0.811 | 0.767 | 0.774 | 0.76 | 0.659 | 0.638 | 0.615 | 0.602 | 0.549 |  |  |  |  | 
NCI-H1623 |  |  |  |  |  | 0.359 | 0.438 | 0.427 | 0.4 | 0.363 | 0.624 | 0.548 | 0.59 | 0.576 | 0.432 |  |  |  |  | 
NCI-H1648 | 0.442 | 0.462 | 0.452 | 0.379 | 0.355 | 0.266 | 0.236 | 0.264 | 0.267 | 0.26 |  |  |  |  |  | 1.25 | 1.15 | 1.21 | 0.979 | 0.936
NCI-H1703 |  |  |  |  |  |  |  |  |  |  |  |  |  |  |  | 0.495 | 0.483 | 0.482 | 0.289 | 0.2
